Results reported in PubChem BioAssay AID1963873 (Molecular Pharmacology Branch, DTP, NCI, 2024).

Each compound was assayed on 276233-004-R-J1-PDC KRAS spheroids with HUVEC/MSC, viability (assay: Anticancer human tumor 276233-004-R-J1-PDC patient-derived colon adenocarcinoma cell line growth inhibition [KRAS2]). Details: second compound 3.16 µM; first compound 0.316 µM; stronger effect = lower value.
Text: Multicellular complex tumor spheroid response to RAS pathway inhibitors in combination with a targeted agents in patient-derived cell lines with oncogenic KRAS variants from multiple cancer types
A high-throughput screen of multi-cell type tumor spheroids was designed to identify active combinations of targeted small molecules and KRAS pathway inhibitors. Complex spheroids include a stromal component modeled by human endothelial cells (HUVEC) and fibroblasts modeled by human mesenchymal stem cells (MSCs). The concentration ranges selected for each drug and investigational agent were based upon clinically achievable concentrations if the clinical Cmax of the agent was known.
Compounds. The drugs and investigational agents: BI-3406 (NSC825286), BAY-293 (NSC824723), batoprotafib (TNO155; NSC825523), sotorasib (AMG 510; NSC818433), MRTX1257 (NSC819558), elimusertib (BAY 1895344; NSC800525), molibresib (GSK525762; NSC774829), temuterkib (LY3214996; NSC803410), venetoclax (NSC766270), alisertib (NSC759677), olaparib (NSC753686), talazoparib (NSC767125), erdafitinib (NSC781556), ipatasertib (NSC767898), cabozantinib (NSC761068), nintedanib (NSC756659), abemaciclib (NSC768073), docetaxel (NSC628503), trametinib (NSC758246), and sapanisertib (NSC764658) were obtained from the National Cancer Institute (NCI) Developmental Therapeutics Program Chemical Repository. The FDA-approved anticancer drug set is available from the Developmental Therapeutics Program. […] The stock solutions were prepared in dimethyl sulfoxide (DMSO, Sigma-Aldrich, St. Louis, MO, cat. D2650) at 800-fold the tested concentration and stored at -70 degrees C prior to their use. All drugs and investigational agents were tested over a range starting from a high concentration at or near the clinical Cmax and decreasing in half-log increments. If the clinical Cmax for an agent had not been determined, the highest concentration tested was 10 microM.
Cell Culture. All cells were maintained in an incubator at 37 degrees C and 5% CO2 with 95% humidity. The PDC lines were cultured according to standard operating procedures established by the NCI PDMR (https://pdmr.cancer.gov/sops/default.htm). Briefly, all PDCs were thawed and cultured in Matrigel-coated flasks prepared with a working solution of 1X Ham's F-12 nutrient mix, without supplementation (Invitrogen, Waltham, MA, cat. 11765054), 100 U/mL penicillin-streptomycin (Invitrogen, cat. 15140122), and 2.5% Matrigel (Corning Inc., Corning, NY, cat. 354248) for the first three passages. All PDCs were cultured in complete DMEM/F-12 media containing advanced DMEM/F-12 (Invitrogen, cat. 12634028), 4.9% defined fetal bovine serum, heat inactivated (HyClone Laboratories Inc., Logan, UT, cat. SH30070.03HI), 389 ng/mL hydrocortisone (Sigma-Aldrich, cat. H4001), 9.7 ng/mL human EGF recombinant protein (Invitrogen, cat. PHG0313), 23.4 microg/mL adenine (Sigma-Aldrich, cat. A2786), 97.3 U/mL penicillin-streptomycin (Invitrogen, cat. 15140122), 1.9 mM L-glutamine (Invitrogen, cat. 25030081), and 9.7 microM Y-27632 dihydrochloride (Tocris Bioscience, Bristol, United Kingdom, cat. 1254). The PDCs were cultured in complete DMEM/F12 media without 9.7 microM Y-27632 dihydrochloride for at least two passages prior to the screen. The established cell line HOP-62 was cultured in RPMI 1640 medium, HEPES (Invitrogen, cat. 22400105) with 10% defined fetal bovine serum (HyClone Laboratories Inc., cat. SH30070.03) and 2 mM L-glutamine (Invitrogen, cat. 25030081). The pooled donor HUVEC were cultured in endothelial cell growth medium 2 (PromoCell, Heidelberg, Germany, cat. C-22011) and the hMSC were cultured in mesenchymal stem cell growth medium 2 (PromoCell, cat. C-28009). For all experiments, HUVEC and hMSC were used at passages </=5, while the malignant cell lines were used at passages </=15. […]
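Note: cells exposed to agents for seven days before viability read; 100% = DMSO vehicle control wells and lower values mean fewer viable cells.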

Structure (SMILES)	viability, T/C [%]
CCNC(=O)CC1N=C(c2ccc(Cl)cc2)c2cc(OC)ccc2-n2c(C)nnc21 (centres undefined) + CC1OCC2(CCN(c3cnc(Sc4ccnc(N)c4Cl)c(N)n3)CC2)C1N	51.5
COc1cc2nccc(Oc3ccc(NC(=O)C4(C(=O)Nc5ccc(F)cc5)CC4)cc3)c2cc1OC + CNCc1ccccc1-c1csc(C(C)Nc2nc(C)nc3cc(OC)c(OC)cc23)c1	0.63
Cn1nccc1Nc1nccc(-c2cc3c(s2)C(C)(C)N(CCN2CCOCC2)C3=O)n1 + C=CC(=O)N1CCN(c2nc(=O)n(-c3c(C)ccnc3C(C)C)c3nc(-c4c(O)cccc4F)c(F)cc23)C(C)C1	93.1

Same assay, conditions: second compound 3.16 µM; first compound 1 µM; stronger effect = lower value

Structure (SMILES)	viability, T/C [%]
COC(=O)c1ccc2c(C(=Nc3ccc(N(C)C(=O)CN4CCN(C)CC4)cc3)c3ccccc3)c(O)[nH]c2c1 + CC1OCC2(CCN(c3cnc(Sc4ccnc(N)c4Cl)c(N)n3)CC2)C1N	41.1
CCNC(=O)CC1N=C(c2ccc(Cl)cc2)c2cc(OC)ccc2-n2c(C)nnc21 (centres undefined) + CC1OCC2(CCN(c3cnc(Sc4ccnc(N)c4Cl)c(N)n3)CC2)C1N	44.4
COc1cc2nccc(Oc3ccc(NC(=O)C4(C(=O)Nc5ccc(F)cc5)CC4)cc3)c2cc1OC + CNCc1ccccc1-c1csc(C(C)Nc2nc(C)nc3cc(OC)c(OC)cc23)c1	0.45
Cn1nccc1Nc1nccc(-c2cc3c(s2)C(C)(C)N(CCN2CCOCC2)C3=O)n1 + C=CC(=O)N1CCN(c2nc(=O)n(-c3c(C)ccnc3C(C)C)c3nc(-c4c(O)cccc4F)c(F)cc23)C(C)C1	98.5

Same assay, conditions: second compound 3.16 µM; first compound 3.16 µM; stronger effect = lower value

Structure (SMILES)	viability, T/C [%]
COC(=O)c1ccc2c(C(=Nc3ccc(N(C)C(=O)CN4CCN(C)CC4)cc3)c3ccccc3)c(O)[nH]c2c1 + CC1OCC2(CCN(c3cnc(Sc4ccnc(N)c4Cl)c(N)n3)CC2)C1N	40
CCNC(=O)CC1N=C(c2ccc(Cl)cc2)c2cc(OC)ccc2-n2c(C)nnc21 (centres undefined) + CC1OCC2(CCN(c3cnc(Sc4ccnc(N)c4Cl)c(N)n3)CC2)C1N	43.3
COc1cc2nccc(Oc3ccc(NC(=O)C4(C(=O)Nc5ccc(F)cc5)CC4)cc3)c2cc1OC + CNCc1ccccc1-c1csc(C(C)Nc2nc(C)nc3cc(OC)c(OC)cc23)c1	0.77
Cn1nccc1Nc1nccc(-c2cc3c(s2)C(C)(C)N(CCN2CCOCC2)C3=O)n1 + C=CC(=O)N1CCN(c2nc(=O)n(-c3c(C)ccnc3C(C)C)c3nc(-c4c(O)cccc4F)c(F)cc23)C(C)C1	72.2

Same assay, conditions: second compound 3.16 µM; first compound 10 µM; stronger effect = lower value

Structure (SMILES)	viability, T/C [%]
COC(=O)c1ccc2c(C(=Nc3ccc(N(C)C(=O)CN4CCN(C)CC4)cc3)c3ccccc3)c(O)[nH]c2c1 + CC1OCC2(CCN(c3cnc(Sc4ccnc(N)c4Cl)c(N)n3)CC2)C1N	37.3
CCNC(=O)CC1N=C(c2ccc(Cl)cc2)c2cc(OC)ccc2-n2c(C)nnc21 (centres undefined) + CC1OCC2(CCN(c3cnc(Sc4ccnc(N)c4Cl)c(N)n3)CC2)C1N	41.4
COc1cc2nccc(Oc3ccc(NC(=O)C4(C(=O)Nc5ccc(F)cc5)CC4)cc3)c2cc1OC + CNCc1ccccc1-c1csc(C(C)Nc2nc(C)nc3cc(OC)c(OC)cc23)c1	0.33
Cn1nccc1Nc1nccc(-c2cc3c(s2)C(C)(C)N(CCN2CCOCC2)C3=O)n1 + C=CC(=O)N1CCN(c2nc(=O)n(-c3c(C)ccnc3C(C)C)c3nc(-c4c(O)cccc4F)c(F)cc23)C(C)C1	86.5

Same assay, conditions: second compound 10 µM; first compound 0.0316 µM; stronger effect = lower value

Structure (SMILES)	viability, T/C [%]
COC(=O)c1ccc2c(C(=Nc3ccc(N(C)C(=O)CN4CCN(C)CC4)cc3)c3ccccc3)c(O)[nH]c2c1 + CC1OCC2(CCN(c3cnc(Sc4ccnc(N)c4Cl)c(N)n3)CC2)C1N	44.9
CCNC(=O)CC1N=C(c2ccc(Cl)cc2)c2cc(OC)ccc2-n2c(C)nnc21 (centres undefined) + CC1OCC2(CCN(c3cnc(Sc4ccnc(N)c4Cl)c(N)n3)CC2)C1N	55
COc1cc2nccc(Oc3ccc(NC(=O)C4(C(=O)Nc5ccc(F)cc5)CC4)cc3)c2cc1OC + CNCc1ccccc1-c1csc(C(C)Nc2nc(C)nc3cc(OC)c(OC)cc23)c1	0.64
Cn1nccc1Nc1nccc(-c2cc3c(s2)C(C)(C)N(CCN2CCOCC2)C3=O)n1 + C=CC(=O)N1CCN(c2nc(=O)n(-c3c(C)ccnc3C(C)C)c3nc(-c4c(O)cccc4F)c(F)cc23)C(C)C1	89.5

Same assay, conditions: second compound 10 µM; first compound 0.1 µM; stronger effect = lower value

Structure (SMILES)	viability, T/C [%]
COC(=O)c1ccc2c(C(=Nc3ccc(N(C)C(=O)CN4CCN(C)CC4)cc3)c3ccccc3)c(O)[nH]c2c1 + CC1OCC2(CCN(c3cnc(Sc4ccnc(N)c4Cl)c(N)n3)CC2)C1N	49.5
CCNC(=O)CC1N=C(c2ccc(Cl)cc2)c2cc(OC)ccc2-n2c(C)nnc21 (centres undefined) + CC1OCC2(CCN(c3cnc(Sc4ccnc(N)c4Cl)c(N)n3)CC2)C1N	56.6
COc1cc2nccc(Oc3ccc(NC(=O)C4(C(=O)Nc5ccc(F)cc5)CC4)cc3)c2cc1OC + CNCc1ccccc1-c1csc(C(C)Nc2nc(C)nc3cc(OC)c(OC)cc23)c1	0.19
Cn1nccc1Nc1nccc(-c2cc3c(s2)C(C)(C)N(CCN2CCOCC2)C3=O)n1 + C=CC(=O)N1CCN(c2nc(=O)n(-c3c(C)ccnc3C(C)C)c3nc(-c4c(O)cccc4F)c(F)cc23)C(C)C1	85.7

Same assay, conditions: second compound 10 µM; first compound 0.316 µM; stronger effect = lower value

Structure (SMILES)	viability, T/C [%]
COC(=O)c1ccc2c(C(=Nc3ccc(N(C)C(=O)CN4CCN(C)CC4)cc3)c3ccccc3)c(O)[nH]c2c1 + CC1OCC2(CCN(c3cnc(Sc4ccnc(N)c4Cl)c(N)n3)CC2)C1N	42.6
CCNC(=O)CC1N=C(c2ccc(Cl)cc2)c2cc(OC)ccc2-n2c(C)nnc21 (centres undefined) + CC1OCC2(CCN(c3cnc(Sc4ccnc(N)c4Cl)c(N)n3)CC2)C1N	52.2
COc1cc2nccc(Oc3ccc(NC(=O)C4(C(=O)Nc5ccc(F)cc5)CC4)cc3)c2cc1OC + CNCc1ccccc1-c1csc(C(C)Nc2nc(C)nc3cc(OC)c(OC)cc23)c1	0.57
Cn1nccc1Nc1nccc(-c2cc3c(s2)C(C)(C)N(CCN2CCOCC2)C3=O)n1 + C=CC(=O)N1CCN(c2nc(=O)n(-c3c(C)ccnc3C(C)C)c3nc(-c4c(O)cccc4F)c(F)cc23)C(C)C1	85.2

Same assay, conditions: second compound 10 µM; first compound 1 µM; stronger effect = lower value

Structure (SMILES)	viability, T/C [%]
COC(=O)c1ccc2c(C(=Nc3ccc(N(C)C(=O)CN4CCN(C)CC4)cc3)c3ccccc3)c(O)[nH]c2c1 + CC1OCC2(CCN(c3cnc(Sc4ccnc(N)c4Cl)c(N)n3)CC2)C1N	48
CCNC(=O)CC1N=C(c2ccc(Cl)cc2)c2cc(OC)ccc2-n2c(C)nnc21 (centres undefined) + CC1OCC2(CCN(c3cnc(Sc4ccnc(N)c4Cl)c(N)n3)CC2)C1N	48.2
COc1cc2nccc(Oc3ccc(NC(=O)C4(C(=O)Nc5ccc(F)cc5)CC4)cc3)c2cc1OC + CNCc1ccccc1-c1csc(C(C)Nc2nc(C)nc3cc(OC)c(OC)cc23)c1	0.15
Cn1nccc1Nc1nccc(-c2cc3c(s2)C(C)(C)N(CCN2CCOCC2)C3=O)n1 + C=CC(=O)N1CCN(c2nc(=O)n(-c3c(C)ccnc3C(C)C)c3nc(-c4c(O)cccc4F)c(F)cc23)C(C)C1	72.6

Same assay, conditions: second compound 10 µM; first compound 3.16 µM; stronger effect = lower value

Structure (SMILES)	viability, T/C [%]
COC(=O)c1ccc2c(C(=Nc3ccc(N(C)C(=O)CN4CCN(C)CC4)cc3)c3ccccc3)c(O)[nH]c2c1 + CC1OCC2(CCN(c3cnc(Sc4ccnc(N)c4Cl)c(N)n3)CC2)C1N	36.3
CCNC(=O)CC1N=C(c2ccc(Cl)cc2)c2cc(OC)ccc2-n2c(C)nnc21 (centres undefined) + CC1OCC2(CCN(c3cnc(Sc4ccnc(N)c4Cl)c(N)n3)CC2)C1N	41.6
COc1cc2nccc(Oc3ccc(NC(=O)C4(C(=O)Nc5ccc(F)cc5)CC4)cc3)c2cc1OC + CNCc1ccccc1-c1csc(C(C)Nc2nc(C)nc3cc(OC)c(OC)cc23)c1	0.14
Cn1nccc1Nc1nccc(-c2cc3c(s2)C(C)(C)N(CCN2CCOCC2)C3=O)n1 + C=CC(=O)N1CCN(c2nc(=O)n(-c3c(C)ccnc3C(C)C)c3nc(-c4c(O)cccc4F)c(F)cc23)C(C)C1	82.2

Same assay, conditions: second compound 10 µM; first compound 10 µM; stronger effect = lower value

Structure (SMILES)	viability, T/C [%]
COC(=O)c1ccc2c(C(=Nc3ccc(N(C)C(=O)CN4CCN(C)CC4)cc3)c3ccccc3)c(O)[nH]c2c1 + CC1OCC2(CCN(c3cnc(Sc4ccnc(N)c4Cl)c(N)n3)CC2)C1N	37.9
CCNC(=O)CC1N=C(c2ccc(Cl)cc2)c2cc(OC)ccc2-n2c(C)nnc21 (centres undefined) + CC1OCC2(CCN(c3cnc(Sc4ccnc(N)c4Cl)c(N)n3)CC2)C1N	42.4
COc1cc2nccc(Oc3ccc(NC(=O)C4(C(=O)Nc5ccc(F)cc5)CC4)cc3)c2cc1OC + CNCc1ccccc1-c1csc(C(C)Nc2nc(C)nc3cc(OC)c(OC)cc23)c1	1.46
Cn1nccc1Nc1nccc(-c2cc3c(s2)C(C)(C)N(CCN2CCOCC2)C3=O)n1 + C=CC(=O)N1CCN(c2nc(=O)n(-c3c(C)ccnc3C(C)C)c3nc(-c4c(O)cccc4F)c(F)cc23)C(C)C1	105
